The test system of the assay is Coptotermes formosanus. Briefly: Termiticidal activity against Coptotermes formosanus assessed as mortality at 5 uM up to 14 days by no choice test relative to control. It counts as functional. To be noted: 336 h.

The results in this text go back to ChEMBL document CHEMBL3045619, “Antitermite activity of 7-alkoxycoumarins and related analogs against Coptotermes formosanus Shiraki” (2012).

Molecules are shown by their SMILES.

For the compound `C=CCOc1ccc2ccc(=O)oc2c1` [7-ALLYLOXYCOUMARIN], the mortality at 5 µM worked out at 38.4%. Turning to `CCCCCCCCCCCCOc1ccc2ccc(=O)oc2c1` [7-DODECYLOXYCOUMARIN], the mortality at 5 µM was 19.2%.

For the compound `CCCCCCCCCCCCCCCCCCOc1ccc2ccc(=O)oc2c1` [7-OCTADECYLOXYCOUMARIN], the mortality at 5 µM worked out at 8.1%. Then `CCCOc1ccc2ccc(=O)oc2c1` [7-PROPOXYCOUMARIN], with 16.2%; and `C/C=C/COc1ccc2ccc(=O)oc2c1` [(E)-7-(2-BUTENYLOXY)COUMARIN], with 33.3%; and `CCCCCCCCCCCCCCCCOc1ccc2ccc(=O)oc2c1` [7-HEXADECYLOXYCOUMARIN], with 3%. In the case of `O=c1ccc2ccc(OC3CCCCC3)cc2o1` [7-CYCLOHEXYLOXYCOUMARIN], the mortality at 5 µM worked out at 65.7%. In the case of `O=c1ccc2ccc(OCCCc3ccccc3)cc2o1` [7-(3-PHENYLPROPOXY)COUMARIN] it was 16.2%. Then `O=c1ccc2ccc(OCCc3ccccc3)cc2o1` [7-PHENETHOXYCOUMARIN], with 10.1%; and `COc1ccc2ccc(=O)oc2c1` [HERNIARIN], with 13.1%. Then `CC(C)Oc1ccc2ccc(=O)oc2c1` [7-ISOPROPOXYCOUMARIN], with 13.1%. Take `CCC#CCOc1ccc2ccc(=O)oc2c1` [7-(2-PENTYNYLOXY)COUMARIN]: the mortality at 5 µM worked out at 32.3%. In the case of `CCCCCC#CCOc1ccc2ccc(=O)oc2c1` [7-(2-OCTYNYLOXY)COUMARIN] it was 28.3%; in that of `O=C(/C=C/c1ccccc1)Oc1ccc2ccc(=O)oc2c1` [7-CINNAMOYLOXYCOUMARIN], 12.1%; in that of `CC#CCOc1ccc2ccc(=O)oc2c1` [7-(2-BUTYNYLOXY)COUMARIN], 51.5%. In the case of `CCCCOc1ccc2ccc(=O)oc2c1` [7-BUTOXYCOUMARIN] it was 19.2%; in that of `CCCCCCCCOc1ccc2ccc(=O)oc2c1` [7-OCTYLOXYCOUMARIN], 17.2%; in that of `CCOc1ccc2ccc(=O)oc2c1` [ETHOXYCOUMARIN], 14.1%. In the case of `O=c1ccc2ccc(Oc3ccc([N+](=O)[O-])cc3)cc2o1` [7-(4-NITROPHENOXY)COUMARIN] it was 62.6%; in that of `CC(C)COc1ccc2ccc(=O)oc2c1` [7-ISOBUTOXYCOUMARIN], 9.1%; in that of `O=c1ccc2ccc(OCc3ccccc3)cc2o1` [7-BENZYLOXYCOUMARIN], 23.2%. Take `COc1cc(COc2ccc3ccc(=O)oc3c2)cc(OC)c1` [7-(3,5-DIMETHOXYBENZYLOXY)COUMARIN]: the mortality at 5 µM came out at 32.3%. In the case of `COc1ccc(COc2ccc3ccc(=O)oc3c2)cc1` it was 41.4%.

For orientation: mortality means the share of the test organisms that died.
